Laboratory results from paper PMC13210772, “Dual FLT3/MAPK14 Proteolysis-Targeting Chimera (PROTAC) Induces Potent Acute Myeloid Leukemia Cell Death” (Pharmaceuticals, 2026).

Key:
Format in all cases: cell-based
MAPK14 [1] = target: T1, MAPK14 (Homo sapiens, UniProt Q16539); test: Phosphorylation of MAPK14, immunoblot in MV4-11 cells; set-up: endogenous in cells; host or cells: K562, RS4-11, MV4-11, MOLM-13 (A17); MV4-11 (A20)
Target sequence in this assay (Q16539 2-360 limits assumed): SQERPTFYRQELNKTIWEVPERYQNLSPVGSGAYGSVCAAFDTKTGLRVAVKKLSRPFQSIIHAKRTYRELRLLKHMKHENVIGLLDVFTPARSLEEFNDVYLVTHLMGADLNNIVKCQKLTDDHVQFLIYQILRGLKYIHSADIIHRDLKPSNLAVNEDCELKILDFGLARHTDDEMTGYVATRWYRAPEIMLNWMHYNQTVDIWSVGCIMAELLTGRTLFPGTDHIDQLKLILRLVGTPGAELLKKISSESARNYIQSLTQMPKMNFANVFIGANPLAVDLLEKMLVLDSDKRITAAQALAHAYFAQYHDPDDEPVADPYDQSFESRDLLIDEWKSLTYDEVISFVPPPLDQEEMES

FLT3-ITD = target: T2, FLT3-ITD (Homo sapiens, UniProt P36888, INS600HVDFREYEYD); test: Phosphorylation of FLT3-ITD, immunoblot in MV4-11 cells; set-up: We treated MV4-11 cells with the synthesized degraders of FLT3; endogenous in cells; host or cells: MV4-11
T2 sequence (P36888 with tags, fused parts or gaps INS600HVDFREYEYD): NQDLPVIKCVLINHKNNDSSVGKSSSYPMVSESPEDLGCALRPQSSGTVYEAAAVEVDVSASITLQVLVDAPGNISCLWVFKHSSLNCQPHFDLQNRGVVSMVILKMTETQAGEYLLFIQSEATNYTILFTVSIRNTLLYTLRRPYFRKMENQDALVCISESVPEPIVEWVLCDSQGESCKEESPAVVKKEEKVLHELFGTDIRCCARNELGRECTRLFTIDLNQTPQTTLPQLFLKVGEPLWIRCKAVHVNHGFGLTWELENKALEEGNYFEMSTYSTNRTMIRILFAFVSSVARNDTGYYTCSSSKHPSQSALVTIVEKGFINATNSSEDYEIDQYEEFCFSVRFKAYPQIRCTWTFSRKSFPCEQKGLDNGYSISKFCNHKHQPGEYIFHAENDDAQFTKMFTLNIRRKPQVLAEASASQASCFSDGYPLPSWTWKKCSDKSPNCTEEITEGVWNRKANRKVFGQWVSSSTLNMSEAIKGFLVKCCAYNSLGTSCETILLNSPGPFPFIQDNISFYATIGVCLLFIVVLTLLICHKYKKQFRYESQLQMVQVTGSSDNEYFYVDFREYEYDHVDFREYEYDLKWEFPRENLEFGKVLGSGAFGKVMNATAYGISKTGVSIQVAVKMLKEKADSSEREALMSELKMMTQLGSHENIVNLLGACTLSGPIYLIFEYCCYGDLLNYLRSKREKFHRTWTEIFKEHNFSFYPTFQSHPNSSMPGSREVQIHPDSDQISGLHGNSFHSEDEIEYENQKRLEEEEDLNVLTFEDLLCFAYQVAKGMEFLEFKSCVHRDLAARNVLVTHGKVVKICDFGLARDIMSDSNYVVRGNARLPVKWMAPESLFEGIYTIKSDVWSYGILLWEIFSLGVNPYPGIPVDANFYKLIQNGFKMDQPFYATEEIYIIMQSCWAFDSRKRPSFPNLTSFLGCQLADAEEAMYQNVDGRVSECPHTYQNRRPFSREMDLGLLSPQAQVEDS
From the text: We aimed to delineate if the FLT3 inhibitor part of MA191 acts as a MAPK14 inhibitor in MV4-11 cells. We used the phosphorylation of FLT3-ITD and the phosphorylation of MAPK14 as markers for their activation. […] This finding is consistent with the detection of MAPK14 in the kinase selectivity profiling approach (Figure 3; MAPK14 is termed p38α therein).
Figure 7 Targeting MAPK14 augments anti-leukemic effects of an inhibition of FLT3-ITD. (a) The graphs show the mRNA levels of MAPK14 in leukemia cells and normal blood cells. […] All immunoblots show data from at least two independent repetitions. (c) Model for how inhibition of various signaling pathways affects AML cells (red, cytoplasm, blue, nucleus).

MAPK14 [2] = target: T1, MAPK14; test: Global proteomics in MOLT-4 cells; set-up: global protein expression profiles of MOLT-4 cells treated with 50 nM MA191 for 5 h; endogenous in cells; host or cells: MOLT-4; conditions: 50 nM, 5 h
Method: Proteome analyses can uncover unexpected targets of PROTACs. Since AML cells with FLT3-ITD are massively damaged by MA191, we applied it to MOLT-4 cells and analyzed them by proteomics.
MOLT4 cells were lysed using a buffer (50 mM NaCl, 8 M urea, 50 mM EPPS, pH 8.5, with phosphatase and protease inhibitors) and homogenized by bead beating (3 × 30 s at 2400 strokes/min). Protein concentration was determined using the Bradford assay. Fifty micrograms of protein per sample were reduced, alkylated, and precipitated using methanol/chloroform. The dried protein pellet was resuspended in 4 M urea/50 mM HEPES (pH 7.4) and diluted to 1 M urea with 200 mM EPPS (pH 8).
Proteins were digested with LysC and trypsin (1:50, enzyme:protein) for 12 h at 37 °C. Samples were acidified to pH 2–3 with formic acid and desalted using C18 solid-phase extraction. […]
diaPASEF raw data were analyzed using DIA-NN 1.8 in library-free mode, enabling peptide/protein identification, FDR control, protein assembly, and quantification through in silico digestion and deep learning-based predictions. […] Precursor quantification used Robust LC with RT-based cross-run normalization.
Proteins with low total abundance (<2000 × number of treatments) were excluded. […] Significant differences versus control were assessed using two-sided moderated t-tests via the limma package in R framework (R Development Core Team, 2014). […]
Target sequence in this assay (Q16539 whole entry): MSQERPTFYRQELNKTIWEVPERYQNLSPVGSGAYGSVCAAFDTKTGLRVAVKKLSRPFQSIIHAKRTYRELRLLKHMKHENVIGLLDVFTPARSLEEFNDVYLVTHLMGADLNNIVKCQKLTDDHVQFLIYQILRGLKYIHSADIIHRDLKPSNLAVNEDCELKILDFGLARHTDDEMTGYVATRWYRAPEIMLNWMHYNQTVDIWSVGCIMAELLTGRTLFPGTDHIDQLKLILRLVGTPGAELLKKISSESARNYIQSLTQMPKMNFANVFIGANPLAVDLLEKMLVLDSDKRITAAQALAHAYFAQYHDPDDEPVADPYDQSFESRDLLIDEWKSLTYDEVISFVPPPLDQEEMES

Question: With `Cc1ncsc1-c1ccc([C@H](C)NC(=O)[C@@H]2C[C@@H](O)CN2C(=O)[C@@H](NC(=O)[C@H]2CC[C@H](C(=O)N3CCN(CCNC(=O)c4cc(Oc5ccc(NC(=O)Nc6cc(C(C)(C)C)on6)cc5)ccn4)CC3)CC2)C(C)(C)C)cc1` [MA191, 4-(4-(3-(5-(tert-Butyl)isoxazol-3-yl)ureido)phenoxy)-N-(2-(4-(trans-4-(((S)-1-((2S,4R)-4-hydroxy-2-(((S)-1-(4-(4-methylthiazol-5-yl)phenyl)ethyl)carbamoyl)pyrrolidin-1-yl)-3,3-dimethyl-1-oxobutan-2-yl)carbamoyl)cyclohexanecarbonyl)piperazin-1-yl)ethyl)picolinamide] as the compound, how does the “phosphorylated MAPK14 (p-MAPK14)” value (MAPK14 [1]) read?
Answer: loss of p-MAPK14 together with MAPK14

Question: And the “phosphorylation of FLT3-ITD” value (FLT3-ITD)?
Answer: inhibited the phosphorylation of FLT3-ITD

Question: And the “MAPK14 protein level, proteome analysis” value (MAPK14 [2])?
Answer: striking downregulation of MAPK14
